# Results from paper PMC10745926, “Synthesis and Evaluation of Compound Targeting α7 and β2 Subunits in Nicotinic Acetylcholinergic Receptor” (Molecules, 2023).
# Read-outs that look alike come from different tables or passages of the source. Marks after values point to notes of the source that are not given here.
# Assays:
# α7 nAChR [1] = target: α7 nAChR; design: method as in PMID 24050653; conditions: HEK293 cells transfected with α7 nAChRs; read-out: Binding affinity α7*; cited from earlier work
# α7 nAChR [2] = assay: HEK293 cells transfected with α7 nAChRs (ASEM, literature); assay type: binding; conditions: from cited affinities
# α4β2 nAChR [3] = target: α4β2 nAChR; design: method as in PMID 24050653; conditions: HEK293 cells transfected with α4β2 nAChRs; read-out: Binding affinity α4β2*; cited from earlier work
# human α4β2 nAChR [4] = conditions: cited from earlier work
# human α4β2 nAChR [5] = conditions: cytisine, from cited affinities
# human α7 nAChR = conditions: read-out: Binding affinity α7*; human α7 nAChR in SH-SY5Y cells; cited from earlier work
# α4β2 nAChR [6] = target: α4β2 nAChR; design: method as in PMID 25687449; conditions: HEK293 membranes expressing α4β2 nAChRs; read-out: Binding affinity α4β2*; cited from earlier work
# α7 nAChR [7] = assay: HEK293 membranes expressing α7 nAChRs (Iodo-ASEM, literature); assay type: binding; conditions: IodoASEM, from cited affinities
# α7 nAChR [8] = target: α7 nAChR; design: method as in PMID 25687449; conditions: cited from earlier work
# α4β2* nAChR [9] = target: T1, α4β2* nAChR (Rattus norvegicus, UniProt P09483+P12390); assay: [3H]cytisine competition binding on rat brain slices (autoradiography)
# T1 construct: Horizontal brain slices, 10 µm thick from male Sprague Dawley rats; from tissue; host or cells: rat brain slices (male Sprague Dawley), several brain regions
# Description: Our previously published procedures were used for [^3H]cytisine experiments. Horizontal brain slices, 10 µm thick from male Sprague Dawley rats, were preincubated in the buffer (50 mmol/L Tris HCl containing 120 mmol/L NaCl, 5 mmol/L KCl, 2.5 mmol/L CaCl2, 1 mmol/L MgCl2, pH 7.4) for 10 min. The pre-incubation buffer was then discarded and the slices were incubated with [^3H]cytisine (2.5 nM, specific activity of 32.7 Ci/mmol) at 2 °C for 75 min. […] After incubation, slices were washed twice (2 min each wash) with ice-cold Tris buffer, pH 7.4, followed by a quick rinse in cold (0–5 °C) deionized water. The slides were then air dried and the radiolabeled brain sections were apposed on storage phosphor screens for two weeks (Perkin Elmer Multisensitive, Medium MS, New Jersy, USA). For autoradiographic analysis, the apposed phosphor screens were read and analyzed by OptiQuant acquisition and analysis program of the Cyclone Storage Phosphor System (Packard Instruments Co., Boston, MA, USA). Regions of interest of same size were drawn and analyzed on brain regions using OptiQuant software version 2 and binding of [^3H]cytisine measured in DLU/mm^2. Data were analyzed using following procedure: (a) the non-specific binding of [^3H]cytisine was subtracted for all samples; (b) the specific binding was normalized to 100% (no competitive ligand); and (c) the binding isotherms were fit to the Hill equation (KELL BioSoft software (v 6), Cambridge, UK).
# α7 nAChR [10] = target: T2, α7 nAChR (Rattus norvegicus, UniProt Q05941); assay: biochemical; assay type: binding
# α4β2* nAChR [11] = target: T1, α4β2* nAChR; assay type: binding
# α4β2* nAChR [12] = target: T1, α4β2* nAChR; assay: Rat brain homogenates labeled with 3H-cytisine (literature); assay type: binding; conditions: α4β2 value from 3H-cytisine rat brain homogenates, α7 from rat cloned receptors
# α4β2* nAChR [13] = target: T1, α4β2* nAChR; conditions: read-out: Binding affinity α4β2*; rat brain cortex labeled with 3H-epibatidine; cited from earlier work
# α7 nAChR [14] = target: T2, α7 nAChR; design: method as in PMID 28875553; conditions: rat cloned receptors labeled with α-[125I]BuTX; read-out: Binding affinity α7*; cited from earlier work
# α7 nAChR [15] = target: T2, α7 nAChR; design: method as in PMID 18445710; conditions: tested in rat; read-out: Binding affinity α7*; cited from earlier work
# α7 nAChR [16] = target: T2, α7 nAChR; assay type: binding
# α4β2* nAChR [17] = conditions: cited from earlier work
# [18] = frontal cortex values taken from Table 1
compound,measurement,setting,value
O=S1(=O)c2cc(N3CCN4CCC3CC4)ccc2-c2cccc(F)c21 [ASEM],Ki,α7 nAChR [1],0.37 nM
same,α7/α4β2 Ratio,α7 nAChR [2],0.0007
same,Ki,α4β2 nAChR [3],562 nM
O=c1cccc2n1C[C@@H]1CNC[C@H]2C1 [Cytisine],α7/α4β2 Ratio,human α4β2 nAChR [4]; heterologously expressed human receptors,544 ^e
same,Ki,"human α4β2 nAChR [4]; read-out: Binding affinity α4β2*, human α4β2 in HEK293 cells",1.27 nM
same,α4β2/α7 Ratio,human α4β2 nAChR [5],0.002
same,Ki,human α7 nAChR,691 nM
O=S1(=O)c2cc(N3CCN4CCC3CC4)ccc2-c2cccc(I)c21 [IodoASEM],Ki,α4β2 nAChR [6],1710 nM
same,α7/α4β2 Ratio,α7 nAChR [7],0.0003
same,Ki,"α7 nAChR [8]; HEK293 membranes expressing α7 nAChRs, read-out: Binding affinity α7*",0.5 nM
same,α4β2/α7 Ratio,α7 nAChR [8]; HEK293 membranes,3414 ^h
"c1ncc(N2CCN3CCC2CC3)cc1OCC1CCN1 [KS7, 3-(2-(S)-azetidinylmethoxy)-5-(1,4-diaza-bicyclo[3.2.2]nonane)pyridine]",IC50,"α4β2* nAChR [9]; frontal cortex value taken from Table 1, read-out: Binding affinity α4β2*",109 nM
same,α4β2/α7 Ratio,α4β2* nAChR [9]; [18],0.01 ^j
same,α7/α4β2 Ratio,α4β2* nAChR [9]; [18],91 ^j
same,IC50,"α4β2* nAChR [9]; rat brain slices, Anterior Cingulate, read-out: Inhibition constants (IC50), [3H]Cytisine, α4β2* nAChRs",49.5 nM
same,IC50,"α4β2* nAChR [9]; rat brain slices, Frontal Cortex, read-out: Inhibition constants (IC50), [3H]Cytisine, α4β2* nAChRs",109 nM
same,IC50,"α4β2* nAChR [9]; rat brain slices, Striatum, read-out: Inhibition constants (IC50), [3H]Cytisine, α4β2* nAChRs",86.9 nM
same,IC50,"α4β2* nAChR [9]; rat brain slices, Subiculum, read-out: Inhibition constants (IC50), [3H]Cytisine, α4β2* nAChRs",172 nM
same,IC50,"α4β2* nAChR [9]; rat brain slices, Thalamus, read-out: Inhibition constants (IC50), [3H]Cytisine, α4β2* nAChRs",134 nM
same,IC50,"α4β2* nAChR [9]; rat brain, several brain regions (abstract), read-out: IC50 for [3H]cytisine radiolabeled sites",50 to 172 nM
same,α7/α4β2 Ratio,"α4β2* nAChR [9]; ratio of IC50 values, Anterior Cingulate",254
same,α7/α4β2 Ratio,"α4β2* nAChR [9]; ratio of IC50 values, Frontal Cortex",91
same,IC50,"α7 nAChR [10]; frontal cortex value taken from Table 1, read-out: Binding affinity α7*",9900 nM
same,IC50,"α7 nAChR [10]; rat brain slices, Anterior Cingulate, read-out: Inhibition constants (IC50), [125I]α-BuTX, α7* nAChRs",12600 nM
same,IC50,"α7 nAChR [10]; rat brain slices, Frontal Cortex, read-out: Inhibition constants (IC50), [125I]α-BuTX, α7* nAChRs",9900 nM
same,IC50,"α7 nAChR [10]; rat brain slices, Hippocampus, read-out: Inhibition constants (IC50), [125I]α-BuTX, α7* nAChRs",33200 nM
same,IC50,"α7 nAChR [10]; rat brain slices, Inferior Colliculus, read-out: Inhibition constants (IC50), [125I]α-BuTX, α7* nAChRs",46800 nM
Fc1ncccc1OC[C@@H]1C=CCN1 [Nifene],α4β2/α7 Ratio,α4β2* nAChR [11]; listed as with α4β2 value from 3H-epibatidine rat cortex,0.007
same,α7/α4β2 Ratio,"α4β2* nAChR [11]; α4β2 value from 3H-epibatidine rat cortex, α7 from rat cloned receptors",158
same,α7/α4β2 Ratio,α4β2* nAChR [12],338
same,Ki,α4β2* nAChR [13],1.07 nM
same,Ki,α7 nAChR [14],169 nM
α-Iodobungarotoxin,Ki,α7 nAChR [15],0.5 nM
same,α4β2/α7 Ratio,α7 nAChR [16],2000
same,α7/α4β2 Ratio,α7 nAChR [16],0.0005
same,Binding affinity α4β2*,α4β2* nAChR [17],>1000 ^f nM
